By IC50 is commonly meant the concentration that inhibits the measured activity by half. The term solubility denotes how much of the substance goes into solution per volume. High values mean a readily soluble substance, low ones a poorly soluble substance.

Here are results for 9 compounds from patent US8703785B2, “2-aminopyrimidin-4-one and 2-aminopyridine derivatives both having BACE1-inhibiting activity” (Shionogi & Co., Ltd., priority 2008, dated 2014).

Like-named read-outs stand apart in the source and are kept apart here. Some results are limits rather than exact numbers.

In data set [1] the test system is Neuroblastoma SH-SY5Y cells (SH/APPwt) with human wild-type β-APP excessively expressed. The data set can be described thus: Measurement of β-amyloid (Aβ) production inhibitory effect in cell. The data set is classed as cell-based. Conditions: 24 hours incubation, Amyloid-β 1-40 HTRF. The method, then: Neuroblastoma SH-SY5Y cells (SH/APPwt) with human wild-type β-APP excessively expressed therein were prepared at 8×10^5 cells/mL, and 150 μl portions thereof were inoculated into respective wells of a 96-well culture plate (Falcon). The cells were cultured for 2 hours at 37° C. in a 5% gaseous carbon dioxide incubator. […] Namely, the final DMSO concentration was 1%, and the amount of the cell culture was 200 μl. After the incubation was performed for 24 hours from the addition of the test compound, 100 μl of the culture supernatant was collected from each fraction. The amount of the Aβ in each fraction was measured. The Aβ amount was measured as follows. 10 μl of a homogeneous time resolved fluorescence (HTRF) measurement reagent (Amyloid-β 1-40 peptide; IBA Molecular Holding, S.A.) and 10 μl of the culture supernatant were put into a 384-well half area microplate (black microplate, Costar) and mixed with each other, and then left standing overnight at 4° C. while the light was shielded. Then, the fluorescence intensity (excitation wavelength: 337 nm, measurement wavelength: 620 nm and 665 nm) was measured with a Wallac 1420 multilabel counter (Perkin Elmer life sciences).
For orientation: Time-resolved FRET reads energy transfer from a long-lived donor to a nearby acceptor.

The next data set deals with Recombinant human BACE-1 (Homo sapiens (Human), UniProt P56817). The data set is described as follows: Measurement of BACE1 inhibitory activity. The data set is classed as biochemical. Conditions: Recombinant human BACE-1 7.4 nM, substrate peptide 18 nM, pH 5.0, 3 hours at 30° C.; read-out: IC50 (BACE1 enzyme activity). The method, then: First, 48.5 μl portions of a solution of substrate peptide (Biotin-XSEVNLDAEFRHDSGC-Eu: X=ε-amino-n-capronic acid, Eu=Europium cryptate) were put into respective wells of a 96-well half area microplate (black microplate, Costar). Then, 0.5 μl of a test compound (DMSO (dimethyl sulfoxide) solution) and 1 μl of Recombinant human BACE-1 (R&D systems) were added to each of the wells, and they were reacted for 3 hours at 30° C. […] The final concentration of the substrate peptide was set to 18 nM, and the final concentration of Recombinant human BACE-1 was set to 7.4 nM. The reaction buffer used was a sodium acetate buffer (50 mM sodium acetate, pH 5.0, 0.008% Triton X-100). After the reaction finished, 50 μl portions of a 8.0 μg/ml solution of Streptavidin-XL665 (CIS bio international) in a phosphate buffer (150 mM K2HPO4—KH2PO4, pH 7.0, 0.008% Triton X-100, 0.8 M KF) were added to the respective wells, and the plate was left standing for 1 hour at 30° C. Thereafter, the fluorescence intensity (excitation wavelength: 320 nm, measurement wavelength: 620 nm and 665 nm) was measured with a Wallac 1420 multilabel counter (Perkin Elmer life sciences). The enzyme activity was determined from the count rate at each measurement wavelength (10000× Count 665/Count 620), and the amount needed to inhibit the enzyme activity by 50% (IC50) was calculated.

Another data set is described as follows: Metabolic stability test. The data set is classed as in vitro ADME. The following applies: human liver microsomes 0.5 mg protein/mL, NADPH, 30 minutes at 37° C., compound concentration 2 μM. The method, then: The target compound was reacted with commercially available pooled human liver microsomes for a predetermined time period. The residual rate was calculated by comparing the reacted sample and unreacted sample, and thus the degree of metabolism in liver was evaluated.
In 0.2 mL of a buffer (50 mmol/L tris-HCl pH 7.4, 150 mmol/L potassium chloride, 10 mmol/L magnesium chloride) containing human liver microsomes 0.5 mg protein/mL, reaction was carried out in the presence of 1 mmol/L NADPH for 0 minute or 30 minutes at 37° C. (oxidative reaction). After the reaction, 50 μL of the reaction solution was added to and mixed with 100 μL of a solution of methanol/acetonitrile=1/1 (v/v), and the mixture was centrifuged for 15 minutes at 3000 rpm. The test compound in the centrifuged supernatant was quantified by LC/MS/MS, and the residual amount of the test compound after the reaction was calculated based on the compound amount at 0-minute reaction set as 100%.
(Results) The residual rate at a compound concentration of 2 μM is shown below.
(In general: Microsomes from liver hold many membrane-bound enzymes, among them those of drug oxidation.)

The target in data set [2] is T1, CYP3A4 (Homo sapiens (Human), UniProt P08684). The data set is described as follows: CYP3A4 fluorescent MBI test. The data set is classed as in vitro ADME. Conditions: E. coli-expressing CYP3A4, 7-BFC substrate, pre-reaction 0 or 30 minutes. Here is the method: The CYP3A4 fluorescent MBI test is a test to examine enhancement of CYP3A4 inhibition by metabolic reaction of the compound. Here, E. coli-expressing CYP3A4 was used as an enzyme, and a reaction wherein 7-benzyloxy trifluoromethylcumarin (7-BFC) was debenzylated by the CYP3A4 enzyme into a fluorescent metabolite 7-hydroxytrifluoromethylcumarin (HFC) was employed as an indicator reaction. The reaction conditions were as follows.
Substrate: 5.6 μmol/L 7-BFC
Pre-reaction time: 0 or 30 minutes
Reaction time: 15 minutes
Reaction temperature: 25° C. (room temperature)
CYP3A4 content (E. coli-expressing enzyme): 62.5 pmol/mL at pre-reaction, […] at reaction (10-fold diluted) […]
The enzyme and a test compound solution were added to a K-Pi buffer (pH 7.4) in the aforementioned amounts for the pre-reaction so that a pre-reaction solution was prepared, and this solution was put into a 96-well microplate. […] With respect to each of the microplates on which the indicator reaction was performed, the fluorescence value of the metabolite 7-HFC was measured with a fluorescence plate reader (Ex=420 nm, Em=535 nm). […] The remaining activity (%) at each concentration after adding the test compound solution was calculated, and the IC50 value was calculated from the concentration and inhibition percentage by inverse estimation with the logistic model. […]

The target of data set [3] is T1, CYP3A4. The data set is described as follows: CYP inhibition test (CYP3A4). Conditions: pooled human liver microsomes, hydroxylation of terfenadine. The data set is classed as in vitro ADME. An excerpt: (§1) Using commercially available pooled human liver microsomes and employing typical substrate metabolic reactions of 5 major species of human CYP enzymes (CYP1A2, 2C9, 2C19, 2D6, 3A4), namely, O-deethylation of 7-ethoxyresorufin (CYP1A2), methyl-hydroxylation of tolbutamide (CYP2C9), 4′-hydroxylation of mephenyloin (CYP2C19), O-demethylation of dextromethorphan (CYP2D6), and hydroxylation of terfenadine (CYP3A4), as indicator reactions, the degree of inhibition of each metabolite production by each test compound was evaluated.
(§2) The reaction conditions were as follows:
(§3) Substrate: 0.5 μmol/L of ethoxyresorufin (CYP1A2), 100 μmol/L of tolbutamide (CYP2C9), 50 μmol/L of S-mephenyloin (CYP2C19), 5 μmol/L of dextromethorphan (CYP2D6), 1 μmol/L of terfenadine (CYP3A4); […]
(§4) As a reaction solution, the respective five substrates, human liver microsomes, and test compound in the aforementioned amounts were added to a 50 mM Hepes buffer in a 96-well microplate. […] Centrifugation was performed for 15 minutes at 3000 rpm, and each metabolite in the centrifuged supernatant was quantified. Namely, resorufin (CYP1A2 metabolite) was quantified with a fluorescence multilabel counter, and hydroxylated tolbutamide (CYP2C9 metabolite), 4′-hydroxylated mephenyloin (CYP2C19 metabolite), dextrorphan (CYP2D6 metabolite) and alcoholized terfenadine (CYP3A4 metabolite) were quantified with LC/MS/MS. […]

The target in another data set is CYP1A2 (Homo sapiens (Human), UniProt P05177). The data set can be described thus: CYP inhibition test (CYP1A2). The data set is classed as in vitro ADME.
Text: as §1, §2, §3, §4

In the next data set the target is CYP2C9 (Homo sapiens (Human), UniProt P11712). The data set is described as follows: CYP inhibition test (CYP2C9). The data set is classed as in vitro ADME. Conditions: pooled human liver microsomes, methyl-hydroxylation of tolbutamide.
Text: as §1, §2, §3, §4

The next data set has as its target CYP2D6 (Homo sapiens (Human), UniProt P10635). The data set can be described thus: CYP inhibition test (CYP2D6). The data set is classed as in vitro ADME. Conditions: pooled human liver microsomes, O-demethylation of dextromethorphan.
Text: as §1, §2, §3, §4

A further data set addresses CYP2C19 (Homo sapiens (Human), UniProt P33261). The data set can be described thus: CYP inhibition test (CYP2C19). Format: in vitro ADME. Conditions: pooled human liver microsomes, 4′-hydroxylation of mephenyloin.
Text: as §1, §2, §3, §4

Another data set is described as follows: Solubility test. Format: physicochemical. The following applies: artificial intestinal juice (phosphate buffer) with 1% DMSO, fassgf or other biorelevant, kinetic from dmso stock, artificial intestinal juice pH 6.8, 16 hours at 25° C. Here is the method:
The solubility of each compound was determined under 1% DMSO addition conditions. A 10 mM solution of the compound was prepared with DMSO, and 6 μL of the compound solution was added to 594 μL of an artificial intestinal juice (water and 118 mL of 0.2 mol/L NaOH reagent were added to 250 mL of 0.2 mol/L potassium dihydrogen phosphate reagent to reach 1000 mL) with a pH of 6.8. The mixture was left standing for 16 hours at 25° C., and the mixture was vacuum-filtered. The filtrate was two-fold diluted with methanol/water=1/1, and the compound concentration in the filtrate was measured with HPLC or LC/MS/MS by the absolute calibration method.

T1 sequence (P08684 whole entry): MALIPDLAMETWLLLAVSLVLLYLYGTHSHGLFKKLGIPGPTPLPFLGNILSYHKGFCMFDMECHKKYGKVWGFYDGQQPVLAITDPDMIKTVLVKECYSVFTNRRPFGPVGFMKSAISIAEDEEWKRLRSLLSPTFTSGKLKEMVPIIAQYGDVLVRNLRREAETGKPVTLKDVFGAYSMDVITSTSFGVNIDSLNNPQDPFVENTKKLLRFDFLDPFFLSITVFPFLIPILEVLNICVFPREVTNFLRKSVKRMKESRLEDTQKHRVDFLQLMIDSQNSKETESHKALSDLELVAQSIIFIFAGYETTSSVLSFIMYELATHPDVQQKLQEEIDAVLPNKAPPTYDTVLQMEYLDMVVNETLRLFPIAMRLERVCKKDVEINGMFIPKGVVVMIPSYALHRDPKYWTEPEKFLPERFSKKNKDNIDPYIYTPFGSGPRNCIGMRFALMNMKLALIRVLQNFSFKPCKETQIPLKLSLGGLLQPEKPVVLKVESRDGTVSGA
Recombinant human BACE-1, sequence (P56817 46-501): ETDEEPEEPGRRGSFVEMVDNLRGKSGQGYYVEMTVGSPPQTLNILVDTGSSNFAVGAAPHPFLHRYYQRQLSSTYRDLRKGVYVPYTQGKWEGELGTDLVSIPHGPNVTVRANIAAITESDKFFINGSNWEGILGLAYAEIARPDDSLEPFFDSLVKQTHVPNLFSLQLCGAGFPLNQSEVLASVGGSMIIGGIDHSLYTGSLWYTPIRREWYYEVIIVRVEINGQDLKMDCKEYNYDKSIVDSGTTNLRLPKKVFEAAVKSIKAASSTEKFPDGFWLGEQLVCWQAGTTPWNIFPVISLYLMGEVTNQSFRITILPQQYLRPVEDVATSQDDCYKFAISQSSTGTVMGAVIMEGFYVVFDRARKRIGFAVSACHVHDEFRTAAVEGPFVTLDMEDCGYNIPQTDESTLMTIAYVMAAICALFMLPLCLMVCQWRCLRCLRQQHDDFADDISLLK
CYP2C9, sequence (P11712 whole entry): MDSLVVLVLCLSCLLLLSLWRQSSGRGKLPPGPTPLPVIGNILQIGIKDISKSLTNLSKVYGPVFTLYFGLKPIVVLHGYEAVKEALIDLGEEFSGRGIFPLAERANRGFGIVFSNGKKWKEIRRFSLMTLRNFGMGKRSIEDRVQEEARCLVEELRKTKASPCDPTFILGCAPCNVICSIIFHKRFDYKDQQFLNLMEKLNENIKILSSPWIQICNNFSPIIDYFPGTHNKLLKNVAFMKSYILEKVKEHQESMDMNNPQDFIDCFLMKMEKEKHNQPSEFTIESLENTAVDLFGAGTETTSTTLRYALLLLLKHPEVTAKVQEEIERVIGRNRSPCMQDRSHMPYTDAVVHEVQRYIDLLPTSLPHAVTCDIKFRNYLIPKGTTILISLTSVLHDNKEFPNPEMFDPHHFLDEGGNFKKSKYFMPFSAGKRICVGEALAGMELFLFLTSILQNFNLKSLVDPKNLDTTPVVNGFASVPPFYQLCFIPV
CYP2D6, sequence (P10635 whole entry): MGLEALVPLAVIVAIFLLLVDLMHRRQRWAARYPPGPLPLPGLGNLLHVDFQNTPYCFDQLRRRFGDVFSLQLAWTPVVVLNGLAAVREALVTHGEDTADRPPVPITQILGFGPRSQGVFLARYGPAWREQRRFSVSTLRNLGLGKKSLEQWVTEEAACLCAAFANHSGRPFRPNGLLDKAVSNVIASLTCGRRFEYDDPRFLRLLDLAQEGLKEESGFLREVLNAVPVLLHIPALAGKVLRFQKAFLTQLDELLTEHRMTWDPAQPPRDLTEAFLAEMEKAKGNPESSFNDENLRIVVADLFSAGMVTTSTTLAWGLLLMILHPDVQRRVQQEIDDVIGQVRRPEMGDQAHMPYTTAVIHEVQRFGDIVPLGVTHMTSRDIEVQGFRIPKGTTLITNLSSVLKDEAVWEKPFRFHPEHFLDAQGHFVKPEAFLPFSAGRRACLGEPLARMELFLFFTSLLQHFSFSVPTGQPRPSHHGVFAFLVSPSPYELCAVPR
CYP1A2, sequence (P05177 whole entry): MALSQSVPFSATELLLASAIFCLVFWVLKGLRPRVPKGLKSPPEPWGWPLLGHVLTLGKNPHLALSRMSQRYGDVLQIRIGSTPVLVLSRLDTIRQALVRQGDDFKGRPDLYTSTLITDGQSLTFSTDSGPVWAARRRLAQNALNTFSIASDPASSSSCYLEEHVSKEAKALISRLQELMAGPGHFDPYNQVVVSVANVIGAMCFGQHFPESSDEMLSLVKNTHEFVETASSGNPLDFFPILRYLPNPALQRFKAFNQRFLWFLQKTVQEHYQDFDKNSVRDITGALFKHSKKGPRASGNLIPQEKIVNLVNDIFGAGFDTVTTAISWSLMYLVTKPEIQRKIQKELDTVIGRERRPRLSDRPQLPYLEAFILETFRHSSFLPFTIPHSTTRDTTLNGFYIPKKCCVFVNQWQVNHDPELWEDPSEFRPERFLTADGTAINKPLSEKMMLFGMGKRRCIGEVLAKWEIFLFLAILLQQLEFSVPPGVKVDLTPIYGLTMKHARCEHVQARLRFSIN
CYP2C19, sequence (P33261 whole entry): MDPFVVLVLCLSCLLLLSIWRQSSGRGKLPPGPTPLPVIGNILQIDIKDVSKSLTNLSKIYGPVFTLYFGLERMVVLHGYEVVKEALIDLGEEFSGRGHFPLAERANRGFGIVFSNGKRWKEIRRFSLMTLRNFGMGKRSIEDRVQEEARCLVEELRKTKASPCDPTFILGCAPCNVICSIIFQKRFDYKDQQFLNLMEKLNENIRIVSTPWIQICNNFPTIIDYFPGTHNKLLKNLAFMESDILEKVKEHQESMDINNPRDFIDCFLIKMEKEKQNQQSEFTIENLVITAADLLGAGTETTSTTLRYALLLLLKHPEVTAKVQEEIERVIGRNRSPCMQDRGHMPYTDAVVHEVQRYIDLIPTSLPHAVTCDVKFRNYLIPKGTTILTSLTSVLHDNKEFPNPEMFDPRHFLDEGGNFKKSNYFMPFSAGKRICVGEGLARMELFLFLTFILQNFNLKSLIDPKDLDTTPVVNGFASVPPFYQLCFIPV

For the compound `CN1C(=O)CC(C)(c2cccc(NC(=O)c3cnc(Cl)cn3)c2)N=C1N` (stereo not shown) [Compound 34], the 50% inhibitory concentration (IC50) in [1] turned out to be 76.2 nM; on Recombinant human BACE-1, 37 nM.

In “Metabolic stability test”, `COc1cnc(C(=O)Nc2cccc(C3(C)CC(=O)N(C)C(N)=N3)c2)cn1` (stereo not shown) [Compound 35] returned a residual rate of 99.5%. The IC50 was 6.6 nM in data set [1] and 42 nM on Recombinant human BACE-1.

For `C#CCOc1cnc(C(=O)Nc2cccc(C3(C)CC(=O)N(C)C(N)=N3)c2)cn1` (stereo not shown) [Compound 43], at CYP3A4 [2], the IC50 difference without vs with pre-reaction was ≤ 3000 nM. The IC50 came to 28.6 nM in [1] and 56 nM at Recombinant human BACE-1.

With `CC#CCOc1cnc(C(=O)Nc2cccc(C3(C)CC(=O)N(C)C(N)=N3)c2)cn1` (stereo not shown) [Compound 44], the half-inhibitory concentration (IC50) is > 20000 nM at CYP3A4 [3]; > 20000 nM against CYP1A2; > 20000 nM on CYP2C9; > 20000 nM against CYP2D6; > 20000 nM against CYP2C19; 0.7 nM in [1]. Further, the half-inhibitory concentration (IC50) at Recombinant human BACE-1 amounted to 12 nM.

For the compound `COc1cnc(C(=O)Nc2cccc(CNc3cccnc3N)c2)cn1` [Compound 473], the solubility at 16 h in the data set “Solubility test” is > 50 µM. Also, the IC50 against CYP3A4 [3] was > 20000 nM; on CYP1A2 (pooled human liver microsomes, O-deethylation of 7-ethoxyresorufin, read-out: IC50 CYP1A2 inhibition), > 20000 nM; on CYP2C9, > 20000 nM; at CYP2D6 it was > 20000 nM; at CYP2C19, > 20000 nM; in data set [1] it was 479 nM. Moreover, the IC50 at Recombinant human BACE-1 stood at 1980 nM.

Take `COCCOc1cnc(C(=O)Nc2cccc(CNc3cccnc3N)c2)cn1` [Compound 478]: in “Solubility test”, the solubility at 16 h is > 50 µM. In addition, the values for the IC50 (in data set [1]; at Recombinant human BACE-1) were 811 nM and 3180 nM, respectively.

Consider `C#CCOc1cnc(C(=O)Nc2cccc(CNc3cccnc3N)c2)cn1` [Compound 481], for which the IC50 worked out at 76.8 nM in data set [1] and 180 nM at Recombinant human BACE-1.

Take `CC#CCOc1cnc(C(=O)Nc2cccc(CNc3cccnc3N)c2)cn1` [Compound 482]: the figures for the half-maximal inhibitory concentration (IC50) (in data set [1]; on Recombinant human BACE-1) were 43.8 nM and 73 nM, respectively.

In turn, `C[C@@H](NC(=O)c1cc(C(=O)N[C@@H](Cc2ccccc2)[C@H](O)CNC2CC2)cc(N(C)S(C)(=O)=O)c1)c1ccccc1` [Reference Compound, reference compound] gave an IC50 in [1] of 36.8 nM.
